From patent US20040063780A1, “Pharmaceutical preparations for treatment of type II diabetes and methods for treatment of type II diabetes” (CHUGAI SEIYAKU KABUSHIKI KAISHA, priority 2002, published 2004)
Several values for one entry are separate records, joined by “and”; a condition that tells them apart may be missing. Equal entries are not always repeated.

Key:
[1] = tested on: db/db mice; experiment: Oral glucose tolerance test in db/db mice (blood glucose and blood lactic acid levels); type: in vivo, mice (C57BLKS/J-m+/+Lepr<db>(db/db)); details: subcutaneous, 30 min before oral glucose 3 g/kg, AUC up to 2 hours
From the text: In a glucose tolerance test with oral administration to db/db mice, approximately 50% suppression of blood glucose level in the db/db mice produces a level increase similar to that of healthy mice, and therefore a blood glucose reduction rate of at least 40%, and especially at least 50%, is preferred.
Measurement of blood glucose reduction rate in db/db mice by a glucose tolerance test with oral administration may be carried out by a publicly known method, but the following method is preferred. Specifically, 11- to 17-week-old female mice (C57BLKS/J-m+/+Lepr(db/db) ) are starved for 18-24 hours. A group of five or six mice is used for the test. Blood is sampled from the tail for measurement of the blood glucose levels before treatment as a control. After sampling, the biguanide derivative is dissolved in phosphate-buffered saline to a suitable concentration and subcutaneously administered at a dose of 5 ml/kg. As a control there are prepared mice administered only the solvent. Glucose is then administered orally at a dose of 3 g/6 ml/kg at 30 minutes after administration of the compound or solvent as an oral glucose tolerance test. Blood is sampled from the tail for measurement of the blood glucose levels 30 minutes, 1 hour and 2 hours after glucose administration. The blood glucose levels are measured using a New Blood Sugar Test (Roche Diagnostics) or a Glucose CII-Test Wako (Wako Pure Chemical Industries, Ltd.).
(§1) The blood glucose reduction rate is calculated according to the following formula.
Blood glucose reduction rate (%)=[(AUC for blood glucose increase level of solvent-administered group—AUC for blood glucose increase level of compound-administered group)/AUC for blood glucose increase level of solvent-administered group]×100
The AUC for blood glucose increase level represents the area of the increase portion in a graph of the blood glucose level changes after glucose administration plotted with respect to time, up to 2 hours after glucose administration, with the glucose level prior to glucose administration as the baseline. Specifically, the AUC for the blood glucose increase level may be calculated by the following formula, where A=blood glucose level before glucose administration, B=blood glucose level 30 minutes after glucose administration, C=blood glucose level 1 hour after glucose administration, D=blood glucose level 2 hours after glucose administration.
AUC for blood glucose increase level=0.5×((A+B)/2-A)+0.5×((B+C)/2-A)+1×((C+D)/2-A)
Measurement of blood glucose reduction rate and blood lactic acid levels by the aforementioned oral glucose tolerance test may be carried out by a publicly known method, and the measurement of the former may be carried out by the method described above, while the following method is preferred for measurement of the latter. Specifically, 11- to 17-week-old female mice (C57BLKS/J-m+/+Lepr(db/db)) are starved for 18-24 hours. A group of five or six mice is used for the test. Blood is sampled from the tail for measurement of the blood lactic acid levels before treatment as a control. After sampling, the biguanide derivative is dissolved in phosphate-buffered saline to a suitable concentration and subcutaneously administered at a dose of 5 ml/kg. As a control there are prepared mice administered only the solvent. Glucose is then administered orally at a dose of 3 g/6 ml/kg at 30 minutes after administration of the compound or solvent as an oral glucose tolerance test. Blood is sampled from the tail for measurement of the blood lactic acid levels 30 minutes, 1 hour and 2 hours after glucose administration. The blood lactic acid levels are measured using an “Asuka Sigma” (Sigma Diagnostics)
The blood lactic acid level increase rate is calculated according to the following formula. […]

[2] = tested on: KKAy mice; experiment: Hypoglycemic test by oral administration using KKAy mice; type: in vivo, mice (KKAy/Ta); details: AUC for blood glucose up to 6 hours after administration
From the text: The strength of the insulin sensitivity-enhancing effect may be evaluated based on the degree of blood glucose reduction rate with administration of the drug agent to KKAy mice. […] In hypoglycemic tests by oral administration using KKAy mice, approximately 45% suppression of blood glucose level in KKAy mice produces a level similar to healthy mice, and therefore a blood glucose reduction rate of 40-50% is preferred.
Measurement of blood glucose reduction rate in KKAy mice by a hypoglycemic test with oral administration may be carried out by a publicly known method, but the following method is preferred.
Specifically, a group of six 11-week-old male mice (KKAy/Ta) is used for the test. Blood is sampled from the tail for measurement of the blood glucose levels before treatment as a control. After sampling, the biguanide derivative is dissolved in a 0.5% CMC-Na (sodium carboxymethyl cellulose) solution to a suitable concentration and orally administered at a dose of 10 mL/kg. As a control there are prepared mice administered only the solvent. Blood is sampled from the tail to measure the blood glucose levels 1, 2, 4 and 6 hours after administration of the drug. The blood glucose levels are measured using a Glucose CII-Test Wako (Wako Pure Chemical Industries, Ltd.).
as §1
Blood glucose reduction rate (%)=[(AUC for blood glucose of control group—AUC for blood glucose of compound-administered group)/AUC for blood glucose of control group]×100
The AUC for blood glucose represents the area in a graph of the blood glucose level changes after administration of the drug plotted with respect to time, up to 6 hours after administration with a glucose level of 0 as the baseline. Specifically, the AUC for the blood glucose level may be calculated by the following formula, where A=blood glucose level before drug administration, B=blood glucose level 1 hour after drug administration, C=blood glucose level 2 hours after drug administration, D=blood glucose level 4 hours after drug administration, E=blood glucose level 6 hours after drug administration.
AUC for blood glucose level=1×((A+B)/2)+1×((B+C)/2)+2×((C+D)/2)+2×((D+E)/2)
A group of six 11-week-old male mice (KKAy/Ta) was used for the test. Blood was sampled from the tail for measurement of the blood glucose levels before treatment as a control. After sampling, furfuryl biguanide was dissolved in a 0.5% CMC-Na (sodium carboxymethyl cellulose) solution to a suitable concentration and orally administered at 10 mL/kg with the dosages shown in Table 1 (Examples 1-5). For comparison, metformin was also orally administered to mice in the doses shown in Table 1 (Comparative Examples 1-5). As a control there were prepared mice which had been orally administered the solvent alone. Blood was sampled from the tail to measure the blood glucose levels 1, 2, 4 and 6 hours after administration of the drug, and the blood glucose reduction rates were calculated by the formula given above. The blood glucose levels were measured using a Glucose CIT-Test Wako (Wako Pure Chemical Industries, Ltd.).

[3] = Mus musculus, sc, 2 h, 75 mg/kg, read-out: Blood glucose reduction rate (%)
[4] = Mus musculus, sc, 2 h, read-out: Blood glucose reduction rate (%)
[5] = Mus musculus, sc, 2 h, 200 mg/kg, read-out: Blood glucose reduction rate (%)

Cc1ccc(CNC(=N)NC(=N)N)o1 [1-(5-methylfurfuryl) biguanide]
inhibition in vivo at 25 mg/kg ([1]; Mus musculus, sc, 2 h, 25 mg/kg, read-out: Blood glucose reduction rate (%)): 24.7%
inhibition in vivo at 50 mg/kg ([1]; Mus musculus, sc, 2 h, 50 mg/kg, read-out: Blood glucose reduction rate (%)): 46.1%
inhibition in vivo at 75 mg/kg [1, 3]: 54.7%
inhibition in vivo at 100 mg/kg [1, 4]: 86.6%
Blood lactic acid level increase rate (%) ([1]; 25 mg/kg): 3.9%
Blood lactic acid level increase rate (%) ([1]; 50 mg/kg): 1.3%
Blood lactic acid level increase rate (%) ([1]; 75 mg/kg): 14.7%

CSCc1ccoc1CNC(=N)NC(=N)N [1-[(3-Methylthiomethylfuran-2-yl)methyl] Biguanide]
inhibition in vivo at 150 mg/kg [1, 4]: 47.3%

Cc1cc(CNC(=N)NC(=N)N)oc1C [1-[(4,5-Dimethylfuran-2-yl)methyl] Biguanide]
inhibition in vivo at 75 mg/kg [1, 3]: 52%

CSc1coc(CNC(=N)NC(=N)N)c1 [1-[(4-Methylthiofuran-2-yl)methyl] Biguanide]
inhibition in vivo at 75 mg/kg [1, 3]: 44.1%
inhibition in vivo at 100 mg/kg [1, 4]: 47.5%
inhibition in vivo at 150 mg/kg [1, 4]: 58.1%
inhibition in vivo at 200 mg/kg [1, 5]: 73.9%

CSCc1ccc(CNC(=N)NC(=N)N)o1 [1-[(5-Methylthiomethylfuran-2-yl)methyll] Biguanide]
inhibition in vivo at 75 mg/kg [1, 3]: 46%

CCc1ccc(CNC(=N)NC(=N)N)o1 [1-[(5-ethylfuran-2-yl)methyl] biguanide, 1-[(5-Ethylfuran-2-yl)methyl] Biguanide]
inhibition in vivo at 75 mg/kg [1, 3]: 71.3%

CC(C)(C)c1ccc(CNC(=N)NC(=N)N)o1 [1-[(5-tert-butylfuran-2-yl)methyl] Biguanide]
inhibition in vivo at 75 mg/kg [1, 3]: 62.1%

N=C(N)NC(=N)NCc1ccco1 [Furfuryl biguanide, Furfuryl Biguanide]
Blood glucose reduction rate (%) ([2]; 25.0 mg/kg): 8.7%
Blood glucose reduction rate (%) ([2]; 50.0 mg/kg): 15.2%
Blood glucose reduction rate (%) ([2]; 100.0 mg/kg): 29.4%
Blood glucose reduction rate (%) ([2]; 200.0 mg/kg): 43.9%
Blood glucose reduction rate (%) ([2]; 300.0 mg/kg): 48.0%
inhibition in vivo at 20 mg/kg ([1]; Mus musculus, sc, 2 h, 20.0 mg/kg, read-out: Blood glucose reduction rate (%)): 46.9%
inhibition in vivo at 40 mg/kg ([1]; Mus musculus, sc, 2 h, 40.0 mg/kg, read-out: Blood glucose reduction rate (%)): 52.3%
inhibition in vivo at 75 mg/kg [1, 3]: 60.6%
inhibition in vivo at 80 mg/kg ([1]; Mus musculus, sc, 2 h, 80.0 mg/kg, read-out: Blood glucose reduction rate (%)): 68.7%
Blood lactic acid level increase rate (%) ([1]; 20.0 mg/kg): 7.0%
Blood lactic acid level increase rate (%) ([1]; 40.0 mg/kg): 16.7%
Blood lactic acid level increase rate (%) ([1]; 75 mg/kg): 22.0%
Blood lactic acid level increase rate (%) ([1]; 80.0 mg/kg): 11.2%

CN(C)C(=N)N=C(N)N [Metformin, reference compound]
Blood glucose reduction rate (%) ([2]; 150.0 mg/kg): 11.6%
Blood glucose reduction rate (%) ([2]; 300.0 mg/kg): 6.4%
Blood glucose reduction rate (%) ([2]; 600.0 mg/kg): 21.8%
Blood glucose reduction rate (%) ([2]; 900.0 mg/kg): 32.7%
Blood glucose reduction rate (%) ([2]; 1350.0 mg/kg): 46.4%
inhibition in vivo at 100 mg/kg [1, 4]: 19.4%
inhibition in vivo at 200 mg/kg [1, 5]: 37.5%
Blood lactic acid level increase rate (%) ([1]; 200 mg/kg, 200 mg/kg): 36.8% and 42.7%
Blood lactic acid level increase rate (%) ([1]; 300 mg/kg, 300 mg/kg): 133.7% and 155.9% and 138.9% and 145.9%
